Measurements taken from PubChem BioAssay (NCI).
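Exposure lasted 48 hours, with cells grown in 96-well plates and compounds tested at five concentrations. TGI denotes the concentration required for complete inhibition of growth.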

Assays:
Assay in all cases: NCI anticancer screen, dose series, 48 h
786-0 renal = test system: 786-0 renal
ACHN renal = test system: ACHN renal
BT-549 breast = test system: BT-549 breast
CCRF-CEM leukemia = test system: CCRF-CEM leukemia
EKVX NSCLC = test system: EKVX NSCLC
HCC-2998 colon = test system: HCC-2998 colon
HCT-116 colon = test system: HCT-116 colon
HOP-62 NSCLC = test system: HOP-62 NSCLC
MDA-MB-435 = test system: MDA-MB-435
NCI-H226 lung = test system: NCI-H226 lung
NCI-H460 lung = test system: NCI-H460 lung
OVCAR-5 ovarian = test system: OVCAR-5 ovarian
OVCAR-8 ovarian = test system: OVCAR-8 ovarian
RPMI-8226 leukemia = test system: RPMI-8226 leukemia
RXF 393 renal = test system: RXF 393 renal
SF-295 CNS = test system: SF-295 CNS
SK-MEL-5 melanoma = test system: SK-MEL-5 melanoma
SK-OV-3 ovarian = test system: SK-OV-3 ovarian
SNB-75 CNS = test system: SNB-75 CNS
U251 CNS = test system: U251 CNS

SMILES	TGI (786-0 renal) [µM]	TGI (ACHN renal) [µM]	TGI (BT-549 breast) [µM]	TGI (CCRF-CEM leukemia) [µM]	TGI (EKVX NSCLC) [µM]	TGI (HCC-2998 colon) [µM]	TGI (HCT-116 colon) [µM]	TGI (HOP-62 NSCLC) [µM]	TGI (MDA-MB-435) [µM]	TGI (NCI-H226 lung) [µM]	TGI (NCI-H460 lung) [µM]	TGI (OVCAR-5 ovarian) [µM]	TGI (OVCAR-8 ovarian) [µM]	TGI (RPMI-8226 leukemia) [µM]	TGI (RXF 393 renal) [µM]	TGI (SF-295 CNS) [µM]	TGI (SK-MEL-5 melanoma) [µM]	TGI (SK-OV-3 ovarian) [µM]	TGI (SNB-75 CNS) [µM]	TGI (U251 CNS) [µM]
CCOC(=O)c1nc2ccccc2nc1NCc1ccc(OC)cc1	> 100	> 100	> 100	> 100	> 100	> 100	> 100	> 100	> 100	> 100	> 100	> 100	> 100	> 100	71.5	> 100	> 100	> 100	> 100	> 100
CCOC(=O)n1[nH]c(=O)n(-c2ccccc2)c1=O	> 100	> 100	> 100	> 100	> 100	> 100	> 100	> 100	> 100	> 100	> 100	> 100	> 100	> 100	> 100	> 100	> 100	> 100	> 100	> 100
CCCCCC(O)[C@H]1C(=O)C[C@@H](O[Si](C)(C)C(C)(C)C)[C@@H]1/C=C/CCOCc1ccccc1 (stereo partly specified)	26.1	26.2	21.3	> 100	35.2	30.9	> 45.5	34.1	22.4	27.5	30.5	36.6	28.4	> 44.8	31.3	20.3	37.9	31.1	32.1	29.6
CCOC(=O)c1sc2nc(SC)nc3c2c1N=CN3c1ccccc1Cl	33.6	55.3	> 100	> 100	> 100	> 100	> 100	32.6	> 100	> 100	> 100	> 100	> 100	> 100	68.6	> 100	> 100	> 100	36.3	> 100
CN(/N=C/c1cccs1)c1ccc(Cl)cc1[N+](=O)[O-]	> 100	> 100	> 100	73.2	> 100	> 100	> 100	> 100	> 100	97.3	> 100	–	> 100	> 100	> 100	> 100	> 100	> 100	> 100	59.5
COC(=O)C1=NN2c3ccccc3C(=O)OCCC2(C)C1 (stereo unspecified)	> 100	> 100	> 100	> 100	> 100	> 100	> 100	> 100	> 100	> 100	> 100	> 100	> 100	> 100	> 100	> 100	> 100	> 100	> 100	> 100
COC1=NC(NC2OCC(O)C(O)C2O)=C(NC(C)=O)CN1C (stereo unspecified)	> 100	> 100	> 100	> 100	> 100	> 100	> 100	–	> 100	> 100	> 100	> 100	> 100	> 100	> 100	> 100	> 100	> 100	> 100	–
O=C1CC(CC(O)C(O)C(O)CO)CC(=O)N1 (stereo unspecified)	> 100	> 100	> 100	> 100	> 100	> 100	> 100	> 100	> 100	> 100	> 100	> 100	> 100	> 100	> 100	> 100	> 100	–	> 100	> 100
Cc1cc2c(c(C=Nc3ccc([N+](=O)[O-])cc3)c1)OC1(C=C2)Oc2ccccc2C(=O)N1C (stereo unspecified)	54.3	50.5	58.7	39.8	43.6	36.2	30.9	82.9	> 100	46	42.7	82.5	36.9	93.1	47.5	77.1	> 100	59.8	51.8	42.8
CCOC(=O)CC(=O)C(=O)NNC1=NCCCN1	> 100	> 100	> 100	> 100	> 100	> 100	> 100	> 100	> 100	> 100	> 100	> 100	> 100	> 100	> 100	> 100	> 100	> 100	> 100	> 100
CC1(C)C=C(/C=N/Nc2ccc([N+](=O)[O-])cc2)C(C#N)=C(O)C1(C#N)C#N	> 100	> 100	> 100	> 100	> 100	> 100	> 100	> 100	> 100	> 100	> 100	> 100	> 100	> 100	> 100	> 100	> 100	> 100	> 100	> 100
COC(=O)c1ccc(N=NN(C)COc2ccc(C#N)cc2)cc1	> 100	> 100	> 100	> 100	> 100	> 100	> 100	> 100	> 100	> 100	> 100	> 100	> 100	> 100	> 100	> 100	> 100	> 100	> 100	> 100
c1ccc(C2C3=C(CCCC3)Nc3nc4cc5ccccc5cc4n32)cc1 (stereo unspecified)	> 100	> 100	> 100	> 100	> 100	> 100	> 100	–	> 100	> 100	> 100	> 100	> 100	> 100	> 100	> 100	> 100	> 100	> 100	> 100
COC(=O)[C@@H]1C[C@H]([Se]c2ccccc2)CN1S(=O)(=O)c1ccc(C)cc1	> 100	> 100	> 100	> 100	> 100	> 100	> 100	> 100	> 100	> 100	> 100	> 100	> 100	> 100	> 100	> 100	> 100	> 100	44.5	> 100
CC(=O)CCNc1ccc(-c2cc(-c3ccc(N(C)C)cc3)nc3ccc4ccccc4c23)cc1	> 100	> 100	> 100	> 100	> 100	> 100	> 100	> 100	> 100	> 78.9	> 100	> 100	> 100	> 100	> 100	> 100	> 100	> 100	> 100	> 100
CN(c1ccccc1)S(=O)(=O)c1ccccc1[N+](=O)[O-]	> 100	> 100	> 100	> 100	> 100	> 100	> 100	> 100	> 100	> 100	> 100	> 100	> 100	> 100	> 100	> 100	–	> 100	> 100	> 100
O=c1c2cc([N+](=O)[O-])ccc2n(Cc2ccccc2)n1Cc1ccccc1	> 31.6	> 31.6	27	> 31.6	> 31.6	> 31.6	> 31.6	> 31.6	17.5	> 31.6	26.9	> 31.6	22.4	18.8	> 31.6	> 31.6	13.3	–	> 31.6	> 31.6
O=C1c2cccnc2S(=O)N1Cc1ccccc1 (stereo unspecified)	> 100	> 100	> 100	> 100	> 100	> 100	> 100	–	> 100	> 100	> 100	> 100	> 100	> 100	> 100	> 100	> 100	> 100	> 100	> 100
Nc1cc2c3c(cccc3c1)C(=O)N(c1ccc(OCCN3CCCCC3)cc1)C2=O	43.3	29.4	38.4	88.3	45.7	34	51.7	31.8	55.7	42.1	–	44	36.4	41.7	35.7	33.4	35.2	31.7	30.6	61.6
Cn1c(=O)[nH]c2[nH]c3ccccc3c2c1=O	> 100	> 100	> 100	> 100	> 100	> 100	> 100	> 100	> 100	> 100	–	> 100	> 100	> 100	> 100	> 100	> 100	> 100	> 100	> 100
CC(=O)OCCCCn1cnc2nc(Nc3ccccc3)nc(Cl)c21	> 100	> 100	> 100	> 100	> 100	> 100	> 100	> 100	> 100	> 100	> 100	–	> 100	> 100	> 100	> 100	> 100	> 100	> 100	> 100
O=C1C2=Cc3ccccc3OC2(O)Oc2cc(O)ccc21 (stereo unspecified)	> 100	> 100	> 100	88.7	> 100	> 100	> 100	> 100	> 100	> 100	–	> 100	> 100	> 100	> 100	> 100	> 100	> 100	> 100	> 100
Cc1cn(C2CC(O)C(Cn3cc(Cn4ncc(=O)[nH]c4=O)nn3)O2)c(=O)[nH]c1=O (stereo unspecified)	> 100	> 100	> 100	> 100	> 100	> 100	> 100	> 100	> 100	> 100	–	> 100	> 100	> 100	> 100	> 100	> 100	> 100	> 100	> 100
Cc1ccc(OCC2OC(C#N)C(Oc3ccc(C)cc3)C2Oc2ccc(C)cc2)cc1 (stereo unspecified)	> 100	–	> 100	> 100	> 100	> 100	> 100	> 100	> 100	> 100	> 100	> 100	> 100	> 100	> 100	> 100	> 100	> 100	> 100	> 100
